These results are taken from patent US20240246968A1, “SMALL MOLECULE INHIBITORS OF KRAS G12C MUTANT” (Merck Sharp & Dohme LLC, priority 2021, published 2024).

pIC50: −log10 of the molar value.

A word on the pIC50: it is the IC50 on a negative log10 scale, so that one unit is a factor of ten.

The target in assay [1] is Gppcp-bound recombinant K-Ras4B G12C mutant protein (amino acids 1-169, C51S/C80L/C118S) (Homo sapiens, UniProt P01116, C118S/C51S/C80L/G12C). Put plainly: KRASG12C binding assay (LC-MS, compound binding rate). As to conditions: test compound final concentration 0.5 μM, 25° C., 1 hour. On the procedure:
As test compounds for the KRASG12C binding assay, the compounds obtained in the “Preparation of Compounds” section were used. Sample solutions each containing a test compound were prepared in the form of a 10 mM DMSO solution.
Gppcp-bound recombinant K-Ras4B G12C mutant protein (amino acids 1-169, C51S/C80L/C118S, SEQ ID NO:1) was diluted with a buffer (1×TBS, 0.1 mM TCEP, 0.25 mM MgCl2, 50 μM Gppcp) to prepare a 50 nM protein solution. K-Ras4B is the major splicing variant of K-Ras. Amino acid sequence of residues 1 to 150 including the compounds' binding region of K-Ras4B is exactly same as that of K-Ras4A, the other splicing variant (Oncotarget. 2016 Jul. 19; 7(29): 46717-46733). A sample solution containing 10 mM test compound was diluted ten-fold with DMSO to make a 1 mM sample solution, and then diluted twenty-fold with DMSO to make a 50 μM sample solution. 1 μL of a 50 μM sample solution was added to 100 μL of a 50 nM protein solution to adjust the final concentration of a test compound to be 0.5 μM in the mixture. The mixtures were stored in an incubator at 25° C. for 1 hour, and 10 μL of a 1×TBS solution containing 2% formic acid was added to stop the reaction, followed by LC-MS measurement. LC-MS measurement was performed using Xevo G2-S Q-Tof manufactured by Waters, and reverse-phase chromatography was performed with a desalting column. A mass spectrum of positive ions was obtained by electrospray. For a mass spectrum, a spectrum of polyvalent ions was collectively converted to a molecular weight by using OpenLynx software by the MaxEnt technique, and a compound binding rate was calculated from the ratio of the signal intensity of a peak that corresponds to the molecular weight of the protein to the signal intensity of a peak that corresponds to the molecular weight of the protein conjugated with the compound.
The binding assay of the test compounds was conducted at a final concentration of 0.5 μM. A binding rate of 80% or more is rated “A”, a binding rate of 60% or more and less than 80% is rated “B”, a binding rate of 40% or more and less than 60% is rated “C”, a binding rate of 20% or more and less than 40% is rated “D”, and a binding rate of less than 20% is rated “E”. N.D.=not determined. Binding rate % is the ratio of KRAS signal intensity at the molecular weight of one molecule adduct to the sum of all the KRAS signal intensity (unbound form and adducts) in mass spectrum. Thus, binding rate 100% means that only the one molecule adduct was observed without any unbound KRAS. The following tables show the results.

Assay [2] deals with T1, interaction between recombinant K-Ras4B G12C mutant protein and cRAF RAS-binding domain (cRAF-RBD) (Homo sapiens, UniProt P01116, G12C).
T1 construct: made in house; host or cells: E. coli
The assay is described as follows: Inhibitory activity on interaction between KRAS G12C and cRAF (Alpha technology). The class given is biochemical. The note with it: GMPPNP-bound KRAS G12C incubated with compound at 25° C. for 1 hour, then cRAF-RBD; Alpha signal. The method, then: Interaction between recombinant K-Ras4B G12C mutant protein (amino acids 1-169, SEQ ID NO:2) and cRAF RAS-binding domain (cRAF-RBD, amino acids 50-132, Jena Biosciences GmbH) was measured using Alpha technology (PerkinElmer Inc.).
Recombinant KRAS G12C protein with an N-terminal His-tag was expressed in E. coli and purified by affinity chromatography. To prepare GTP-bound form and GDP-bound form of KRAS G12C protein. 50 μM KRAS G12C protein was incubated with 1 mM GMPPNP (Guanosine-5′-[(β,γ)-imido]triphosphate. Tetralithium salt)(Jena Bioscience GmbH) and 1 mM GDP, respectively, in a loading buffer (20 mM Tris-HCl (pH 7.5), 50 mM NaCl, 1 mM DTT and 2.5 mM EDTA) for 1 hour on ice. After the incubation, MgCl2 was added to a final concentration of 10 mM, followed by incubation at room temperature for 30 minutes. The mixture was allowed to pass through a NAP-5 column to remove free nucleotides and purified, and the resultant nucleotide-bound KRAS G12C protein was used for compound evaluation.
For the measurement of the inhibitory activity of compounds on interaction between KRAS G12C and cRAF-RBD, GMPPNP-bound KRAS G12C protein was incubated with various concentrations of compound in a reaction buffer (20 mM Tris-HCl (pH 7.5), 100 mM NaCl, 1 mM MgCl2, 1 mM TCEP. 0.1% Tween 20) at 25° C. for 1 hour. After the incubation, recombinant cRAF-RBD and Alpha detection reagents were added and incubated at room temperature for 1.5 hours for binding. Interaction of KRAS G12C and cRAF-RBD was monitored by measuring Alpha signal. Inhibition % was calculated using the signal from the reaction without test compound (DMSO control) as 0% inhibition and the signal from the reaction using GDP-bound KRAS G12C in place of GMPPNP-bound KRAS G12C as 100% inhibition. IC50 values were calculated from dose titration curve using curve fitting by XLfit software (IDBS). The following tables show the results.

Assay [3] has as its system MIA PaCa-2 cells. Put plainly: Growth inhibition activity on KRAS-G12C mutant cell line (MIA PaCa-2), CellTiter-Glo 3D. The note with it: MIA PaCa-2, 3-day culture with compound. The class given is cell-based, human. On the procedure: MIA PaCa-2 cells (given by Sumitomo Dainippon Pharma Co., Ltd.), which are a KRAS-G12C mutant human pancreas cancer cell line, were suspended in a 10% fetal bovine serum-containing RPMI1640 medium (manufactured by Fujifilm Wako Pure Chemical Corporation.). The cell suspension was seeded into each well of a 384-well U bottom microplate and cultured in an incubator containing 5% CO2 gas at 37° C. for 1 day. The compounds obtained in the “Preparation of Compounds” section were used as test compounds and were dissolved in DMSO, respectively, and each test compound was diluted with DMSO to give a concentration 500 times the final concentration. The resultant solution of the test compound in DMSO was diluted with the medium used for suspending cells and added to each well of the cell-culture plate to give a DMSO final concentration of 0.2%, followed by culture in an incubator containing 5% CO2 gas at 37° C. for another 3 days. The cell count after 3-day culture in the presence of the test compound was measured using CellTiter-Glo 3D Reagent (manufactured by Promega Corporation). All wells were added with CellTiter-Glo 3D Reagent and mixed for 10 minutes. 30 minutes after mixing, luminescence was measured by a plate reader. The growth inhibition rate was calculated from the following equation, and the concentration of the test compound at which 50/o inhibition was achieved (IC50 (nM)) was determined. The following tables show the results.
[formula] • T: the emission intensity in a well into which a test compound was added. • C: the emission intensity in a well into which a test compound was not added.

Regarding `CO[C@H]1CC[C@H](NC/C=C/C(=O)Nc2c(F)cc(C(=O)c3ccc4c(-c5c(Cl)cc6c(ncn6C)c5Cl)cccn34)cc2F)CC1` (single isomer, unassigned) [Example 15-1, (E)-N-(4-(8-(4,6-dichloro-1-methyl-1H-benzo[d]imidazol-5-yl)indolizine-3-carbonyl)-2,6-difluorophenyl)-4-(((1r,4r)-4-methoxycyclohexyl)amino)but-2-enamide], the binding rate result in assay [1] is on record as “A (A binding rate of 80% or more is rated “A”)”. Moreover, the pIC50 in assay [2] is 7.38; in assay [3] it was 7.34.

Turning to `Cc1nc2cc(-c3cccn4c(C(=O)c5cc(F)c(NC(=O)/C=C/CNC6CCCCC6O)c(F)c5)ccc34)c(C(F)(F)F)cc2n1C` (stereo not drawn) [Example 63, (E)-N-(4-(8-(1,2-dimethyl-6-(trifluoromethyl)-1H-benzo[d]imidazol-5-yl)indolizine-3-carbonyl)-2,6-difluorophenyl)-4-((2-hydroxycyclohexyl)amino)but-2-enamide], the binding rate result in assay [1] is given as “A (A binding rate of 80% or more is rated “A”)”. The pIC50 in assay [2] was 7.15; in assay [3] (Homo sapiens, MIA PaCa-2, 72 h), 6.40.

For `CO[C@H]1CC[C@H](NC/C=C/C(=O)Nc2c(F)cc(C(=O)c3cc(CO)c4c(-c5c(C)cc6c(nc(C)n6C)c5Cl)cccn34)cc2F)CC1` [Example 93], the binding rate entry in assay [1] was “A (A binding rate of 80% or more is rated “A”)”. The pIC50 in assay [2] was 7.60; in assay [3] (Homo sapiens, MIA PaCa-2, 72 h), 6.89.

For the compound `CO[C@H]1CC[C@H](NC/C=C/C(=O)Nc2c(F)cc(C(=O)c3cnc4c(-c5cc6nc7n(c6cc5C(F)(F)F)CCC7)cccn34)cc2F)CC1` [Example 6, (E)-N-(2,6-difluoro-4-(8-(7-(trifluoromethyl)-2,3-dihydro-1H-benzo[d]pyrrolo[1,2-a]imidazol-6-yl)imidazo[1,2-a]pyridine-3-carbonyl)phenyl)-4-(((1r,4r)-4-methoxycyclohexyl)amino)but-2-enamide], the binding rate entry in assay [1] is “B (a binding rate of 60% or more and less than 80% is rated “B”)”. Moreover, the pIC50 in assay [2] was 7.15; in assay [3] (Homo sapiens, MIA PaCa-2, 72 h) it was 7.03.

Regarding `CCc1nc2c(-c3cc4nc(C)n(C)c4cc3C(F)(F)F)cccn2c1C(=O)c1cc(F)c(NC(=O)/C=C/CN[C@H]2CC[C@H](OC)CC2)c(F)c1` [Example 99, (E)-N-(4-(8-(1,2-dimethyl-6-(trifluoromethyl)-1H-benzo[d]imidazol-5-yl)-2-ethylimidazo[1,2-a]pyridine-3-carbonyl)-2,6-difluorophenyl)-4-(((1r,4r)-4-methoxycyclohexyl)amino)but-2-enamide], the binding rate entry in assay [1] is on record as “A (A binding rate of 80% or more is rated “A”)”. Moreover, the pIC50 in assay [2] was 6.77; in assay [3] (Homo sapiens, MIA PaCa-2, 72 h), 6.77.

On to `Cc1nc2cc(-c3cccn4c(C(=O)c5cc(F)c(NC(=O)/C=C/CNC6CCCCC6CO)c(F)c5)ccc34)c(C(F)(F)F)cc2n1C` (stereo not drawn) [Example 65, (E)-N-(4-(8-(1,2-dimethyl-6-(trifluoromethyl)-1H-benzo[d]imidazol-5-yl)indolizine-3-carbonyl)-2,6-difluorophenyl)-4-((2-(hydroxymethyl)cyclohexyl)amino)but-2-enamide], for which, in assay [1], the binding rate entry is “A (A binding rate of 80% or more is rated “A”)”. Besides, the pIC50 in assay [2] is 7.12; in assay [3] (Homo sapiens, MIA PaCa-2, 72 h) it was 6.72.

For `COc1c(-c2cccn3c(C(=O)c4cc(F)c(NC(=O)/C=C/CNC5(C)CC5)c(F)c4)c(C)nc23)c(C(F)(F)F)cc2c1nc(C)n2C` (single isomer, unassigned) [Example 109-2, (E)-N-(2,6-difluoro-4(8-(4-methoxy-1,2-dimethyl-6-(trifluoromethyl)-1H-benzo[d]imidazol-5-yl)-2-methylimidazo[1,2-a]pyridine-3-carbonyl)phenyl)-4-((1-methylcyclopropyl)amino)but-2-enamide], in assay [1], the binding rate result was “D (a binding rate of 20% or more and less than 40% is rated “D”)”. Also, the pIC50 in assay [2] is 5.92; in assay [3] it was 6.11.
